Data from US8318736B2, “HIV inhibiting 5,6-substituted pyrimidines” (Janssen R&D Ireland, priority 2006, dated 2012).
Read-outs that look alike come from different tables or passages of the source.

Assays:
[1] = system: HIV strain IIIB (wild type); experiment: microbe, parasite or virus in culture; settings: for EC50: Human immunodeficiency virus 1, IIIB, 72 h, read-out: IIIB pEC50 (-log EC50) (converted); for pSI (IIIB) (-log SI; SI = ratio of CC50 to EC50): strain IIIB, CC50 in mock-infected MT4 CMV-EGFP cells
Experimental: Compounds of the invention were tested for their potency against wild type virus and clinically isolated HIV strains harboring one or more mutations associated with resistance to reverse transcriptase inhibitors. Antiviral activity was evaluated using a cellular assay performed according to the following procedure.
The human T-cell line MT4 was engineered with Green Fluorescent Protein (GFP) and a HIV-specific promoter, HIV-1 long terminal repeat (LTR). This cell line, designated MT4 LTR-EGFP, can be used for the in vitro evaluation of anti-HIV activity of investigational compounds. In HIV-1 infected cells, the Tat protein is produced, which upregulates the LTR promotor and eventually leads to stimulation of the GFP reporter production, allowing to measure ongoing HIV-infection fluorometrically.
Analogously, MT4 cells were engineered with GFP and the constitutional cytomegalovirus (CMV) promotor. This cell line was designated MT4 CMV-EGFP, and can be used for the in vitro evaluation of cytotoxicity of investigational compounds. […] Cytotoxic investigational compounds reduce GFP levels of mock-infected MT4 CMV-EGFP cells.
The ratio of CC50 to EC50 is defined as the selectivity index (SI) and is an indication of the selectivity of the anti-HIV activity of the inhibitor. The ultimate monitoring of HIV-1 infection and cytotoxicity was done using a scanning microscope. […] Measurements were done before cell necrosis, which usually takes place about five days after infection, in particular measurements were performed three days after infection.
The columns IIIB, L100I, etc. in the table list the pEC50 (−log EC50) values against various strains IIIB, L100I, etc.; pSI lists the −log SI values.
Strain IIIB is wild type HIV strain.

[2] = system: HIV strain MDR (L100I, K103N, Y181C, E138G, V1791, L2214F, V278V/I and A327A/V in HIV reverse transcriptase); experiment: microbe, parasite or virus in culture; type: cell-based, HIV-1; settings: for EC50: Human immunodeficiency virus 1, read-out: MDR pEC50 (-log EC50) (converted); for MDR pEC50 (-log EC50): MDR strain, MT4 LTR-EGFP cells
From the text: (§1) Image analysis allowed very sensitive detection of viral infection.
“MDR” refers to a strain that contains mutations L100I, K103N, Y181C, E138G, V1791, L2214F, V278V/I and A327A/V in HIV reverse transcriptase.

HIV strain L100I + K103N = experiment: microbe, parasite or virus in culture; type: cell-based, HIV-1; settings: for EC50: Human immunodeficiency virus 1, 72 h, read-out: L100I + K103N pEC50 (-log EC50) (converted); for L100I + K103N pEC50 (-log EC50): L100I + K103N strain, MT4 LTR-EGFP cells
From the text: as §1

HIV strain K103N + Y181C [3] = experiment: microbe, parasite or virus in culture; type: cell-based, HIV-1; settings: Human immunodeficiency virus 1, 72 h, read-out: K103N + Y181C pEC50 (-log EC50) (converted)
Experimental: (§2) The ratio of CC50 to EC50 is defined as the selectivity index (SI) and is an indication of the selectivity of the anti-HIV activity of the inhibitor. The ultimate monitoring of HIV-1 infection and cytotoxicity was done using a scanning microscope. Image analysis allowed very sensitive detection of viral infection. Measurements were done before cell necrosis, which usually takes place about five days after infection, in particular measurements were performed three days after infection.

HIV strain K103N + Y181C [4] = system: HIV strain K103N + Y181C (second column with this head); experiment: microbe, parasite or virus in culture; type: cell-based, HIV-1; settings: Human immunodeficiency virus 1, 72 h, read-out: K103N + Y181C pEC50 (-log EC50) (converted)
Experimental: as §2

[5] = wild type HIV strain IIIB, MT4 LTR-EGFP cells, three days after infection

Compound	EC50 [1]	pSI (IIIB) (-log SI; SI = ratio of CC50 to EC50) [1]	EC50 [2]	EC50 (HIV strain L100I + K103N)	EC50 (HIV strain K103N + Y181C [3])	EC50 (HIV strain K103N + Y181C [4])	melting point	IIIB pEC50 (-log EC50) [1, 5]	MDR pEC50 (-log EC50) [2]	L100I + K103N pEC50 (-log EC50) (HIV strain L100I + K103N)	IIIB pEC50 (-log EC50) [1]
COCc1nc(Nc2ccc(C#N)cc2)nc(Nc2c(C)cc(/C=C/C#N)cc2C)c1-c1ccco1 [Compound 6]	3.63 nM	3.61	89.1 nM	3.63 nM	16.6 nM	17.4 nM	105 °C				
COCc1nc(Nc2ccc(C#N)cc2)nc(Nc2c(C)cc(/C=C/C#N)cc2C)c1-c1ccoc1 [Compound 7]	3.72 nM	3.75	91.2 nM	2.4 nM	12.3 nM	12.6 nM	122 °C				
COCc1nc(Nc2ccc(C#N)cc2)nc(Nc2c(C)cc(/C=C/C#N)cc2C)c1C(=O)NCCN(C)C [Compound 13]		3.32						8.41	5.69	6.81	
COCc1nc(Nc2ccc(C#N)cc2)nc(Nc2c(C)cc(/C=C/C#N)cc2C)c1C(=O)NCCc1ccccn1 [Compound 15]		3.52						8.55	6.43	7.24	
COCc1nc(Nc2ccc(C#N)cc2)nc(Nc2c(C)cc(/C=C/C#N)cc2C)c1C(=O)N1CCN(CCO)CC1 [Compound 17]		>2.83						7.43	5.19	6.59	
COCc1nc(Nc2ccc(C#N)cc2)nc(Nc2c(C)cc(/C=C/C#N)cc2C)c1C(=O)NCC(OC)OC [Compound 19]		3.83						8.59	6.97	7.38	
COCc1nc(Nc2ccc(C#N)cc2)nc(Nc2c(C)cc(/C=C/C#N)cc2C)c1C(=O)NCc1ccccn1 [Compound 20]		3.81						8.83	7.03	7.28	
COCc1nc(Nc2ccc(C#N)cc2)nc(Nc2c(C)cc(/C=C/C#N)cc2C)c1C(=O)NC1CC1 [Compound 23]		3.87						8.62	6.85	7.81	
C=CCNC(=O)c1c(COC)nc(Nc2ccc(C#N)cc2)nc1Nc1c(C)cc(/C=C/C#N)cc1C [Compound 24]									6.72	7.99	8.66
COCc1nc(Nc2ccc(C#N)cc2)nc(Nc2c(C)cc(/C=C/C#N)cc2C)c1C(=O)NCCc1cccs1 [Compound 30]		>3.24						7.84	5.79	6.67	
C=CC(O)c1c(COC)nc(Nc2ccc(C#N)cc2)nc1Nc1c(C)cc(/C=C/C#N)cc1C (stereo not drawn) [Compound 36]	2.63 nM	3.85	66.1 nM	3.47 nM	8.71 nM	12.6 nM					
COCc1nc(Nc2ccc(C#N)cc2)nc(Nc2c(C)cc(/C=C/C#N)cc2C)c1C(C)O (stereo not drawn) [Compound 37]	1.45 nM	3.95	105 nM	2.45 nM	6.03 nM	11.5 nM					
COCc1nc(Nc2ccc(C#N)cc2)nc(Nc2c(C)cc(/C=C/C#N)cc2C)c1C(O)c1nccs1 (stereo not drawn) [Compound 38]	2.69 nM	3.81	174 nM	3.72 nM	12.3 nM	12 nM					
